# Laboratory results from ChEMBL document CHEMBL4610129, “Discovery of Novel Selective and Orally Bioavailable Phosphodiesterase-1 Inhibitors for the Efficient Treatment of Idiopathic Pulmonary Fibrosis” (J Med Chem, 2020).
# The source made the active and inactive calls. The calls are words filed in the database; no cut-off is given here.
# How the values were obtained:
# [1] = AUC (0 to t) in Sprague-Dawley rat at 5 mg/kg, po; type: ADME, organism-based; conditions: in vivo
# Rattus norvegicus [2] = test: Anti-pulmonary fibrosis activity in Sprague-Dawley rat model of BLM-induced idiopathic pulmonary fibrosis assessed as inhibition of collagen deposition at 10 mg/kg, po dosed daily for 28 days by Masson staining based assay; type: functional, organism-based
# [3] = molecular target: cGMP-specific 3',5'-cyclic phosphodiesterase (Homo sapiens, UniProt O76074); test: Inhibition of PDE5A1 (535 to 860 residues) (unknown origin) using [3H]-cGMP substrate incubated for 15 mins by liquid scintillation counting method relative to control
# [4] = molecular target: cGMP-dependent 3',5'-cyclic phosphodiesterase (Homo sapiens, UniProt O00408); test: Inhibition of PDE2A (580 to 919 residues) (unknown origin) using [3H]-cGMP substrate incubated for 15 mins by liquid scintillation counting method relative to control
# Cytochrome P450 2D6 = Cytochrome P450 2D6 (Homo sapiens, UniProt P10635); test: Inhibition of human CYP2D6; type: ADME
# Cytochrome P450 2D6, sequence (P10635 whole entry): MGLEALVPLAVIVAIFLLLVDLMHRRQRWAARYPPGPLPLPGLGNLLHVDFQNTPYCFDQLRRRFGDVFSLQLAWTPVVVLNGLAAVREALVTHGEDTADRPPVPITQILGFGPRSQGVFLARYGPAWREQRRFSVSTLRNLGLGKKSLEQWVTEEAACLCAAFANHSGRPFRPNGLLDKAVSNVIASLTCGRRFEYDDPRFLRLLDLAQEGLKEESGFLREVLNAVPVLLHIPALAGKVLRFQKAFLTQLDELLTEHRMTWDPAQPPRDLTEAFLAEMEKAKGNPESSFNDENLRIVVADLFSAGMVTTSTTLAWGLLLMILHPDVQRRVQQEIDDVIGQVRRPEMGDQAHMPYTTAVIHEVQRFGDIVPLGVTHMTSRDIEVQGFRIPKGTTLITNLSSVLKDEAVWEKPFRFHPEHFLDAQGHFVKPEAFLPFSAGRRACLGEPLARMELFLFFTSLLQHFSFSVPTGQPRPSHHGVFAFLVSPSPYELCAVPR
# Rattus norvegicus [5] = test: Anti-pulmonary fibrosis activity in Sprague-Dawley rat model of BLM-induced idiopathic pulmonary fibrosis assessed as reduction in end-inspiratory pause at 10 mg/kg, po dosed daily for 28 days by mka noninvasive pulmonary monitoring system based method; type: functional, organism-based
# [6] = molecular target: Cone cGMP-specific 3',5'-cyclic phosphodiesterase subunit alpha' (Homo sapiens, UniProt P51160); test: Inhibition of PDE6C (1 to 858 residues) (unknown origin) using [3H]-cGMP substrate incubated for 15 mins by liquid scintillation counting method relative to control
# Cone cGMP-specific 3',5'-cyclic phosphodiesterase subunit alpha', sequence (P51160 whole entry, the tested form may be a part): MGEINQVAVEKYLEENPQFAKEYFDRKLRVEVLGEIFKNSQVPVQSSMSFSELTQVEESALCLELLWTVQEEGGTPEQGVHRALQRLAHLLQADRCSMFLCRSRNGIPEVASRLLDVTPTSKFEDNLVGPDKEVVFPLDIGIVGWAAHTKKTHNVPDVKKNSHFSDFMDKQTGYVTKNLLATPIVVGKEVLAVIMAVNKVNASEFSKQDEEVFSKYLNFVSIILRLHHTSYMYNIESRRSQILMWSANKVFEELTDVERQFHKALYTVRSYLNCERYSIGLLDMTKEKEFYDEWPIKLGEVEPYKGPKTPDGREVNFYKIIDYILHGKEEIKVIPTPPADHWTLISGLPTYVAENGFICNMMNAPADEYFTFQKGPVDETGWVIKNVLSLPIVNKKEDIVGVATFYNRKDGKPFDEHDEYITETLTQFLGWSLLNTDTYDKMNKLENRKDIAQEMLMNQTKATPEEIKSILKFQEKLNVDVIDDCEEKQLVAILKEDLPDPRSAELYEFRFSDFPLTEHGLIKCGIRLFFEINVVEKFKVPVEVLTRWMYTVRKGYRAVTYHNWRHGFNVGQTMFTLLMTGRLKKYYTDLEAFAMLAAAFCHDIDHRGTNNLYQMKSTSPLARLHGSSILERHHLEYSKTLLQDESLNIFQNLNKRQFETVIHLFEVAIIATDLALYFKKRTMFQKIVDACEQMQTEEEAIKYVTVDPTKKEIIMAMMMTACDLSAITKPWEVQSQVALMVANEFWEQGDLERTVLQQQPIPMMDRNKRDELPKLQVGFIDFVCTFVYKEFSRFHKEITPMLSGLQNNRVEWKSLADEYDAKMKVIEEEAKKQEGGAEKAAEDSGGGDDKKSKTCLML
# Cytochrome P450 3A4 = Cytochrome P450 3A4 (Homo sapiens, UniProt P08684); test: Inhibition of human CYP3A4 using midazolam as substrate; type: ADME
# [7] = Cmax in Sprague-Dawley rat at 5 mg/kg, po; type: ADME, organism-based; parameters: dose 5 mg/kg, route oral; conditions: in vivo
# [8] = MRT (0 to t) in Sprague-Dawley rat at 2.5 mg/kg, iv; type: ADME, organism-based; conditions: in vivo
# [9] = molecular target: 3',5'-cyclic-AMP phosphodiesterase 4D (Homo sapiens, UniProt Q08499); test: Inhibition of PDE4D2 (86 to 413 residues) (unknown origin) using [3H]-cAMP substrate incubated for 15 mins by liquid scintillation counting method relative to control
# Cytochrome P450 2C9 = Cytochrome P450 2C9 (Homo sapiens, UniProt P11712); test: Inhibition of human CYP2C9; type: ADME
# Rattus norvegicus [10] = test: Anti-pulmonary fibrosis activity in Sprague-Dawley rat model of BLM-induced idiopathic pulmonary fibrosis assessed as reduction in mid-expiratory flow at 10 mg/kg, po dosed daily for 28 days by mka noninvasive pulmonary monitoring system based method; type: functional, organism-based
# [11] = molecular target: High affinity cAMP-specific and IBMX-insensitive 3',5'-cyclic phosphodiesterase 8A (Homo sapiens, UniProt O60658); test: Inhibition of PDE8A1 (480 to 820 residues) (unknown origin) using [3H]-cAMP substrate incubated for 15 mins by liquid scintillation counting method relative to control
# High affinity cAMP-specific and IBMX-insensitive 3',5'-cyclic phosphodiesterase 8A, sequence (O60658 whole entry, the tested form may be a part): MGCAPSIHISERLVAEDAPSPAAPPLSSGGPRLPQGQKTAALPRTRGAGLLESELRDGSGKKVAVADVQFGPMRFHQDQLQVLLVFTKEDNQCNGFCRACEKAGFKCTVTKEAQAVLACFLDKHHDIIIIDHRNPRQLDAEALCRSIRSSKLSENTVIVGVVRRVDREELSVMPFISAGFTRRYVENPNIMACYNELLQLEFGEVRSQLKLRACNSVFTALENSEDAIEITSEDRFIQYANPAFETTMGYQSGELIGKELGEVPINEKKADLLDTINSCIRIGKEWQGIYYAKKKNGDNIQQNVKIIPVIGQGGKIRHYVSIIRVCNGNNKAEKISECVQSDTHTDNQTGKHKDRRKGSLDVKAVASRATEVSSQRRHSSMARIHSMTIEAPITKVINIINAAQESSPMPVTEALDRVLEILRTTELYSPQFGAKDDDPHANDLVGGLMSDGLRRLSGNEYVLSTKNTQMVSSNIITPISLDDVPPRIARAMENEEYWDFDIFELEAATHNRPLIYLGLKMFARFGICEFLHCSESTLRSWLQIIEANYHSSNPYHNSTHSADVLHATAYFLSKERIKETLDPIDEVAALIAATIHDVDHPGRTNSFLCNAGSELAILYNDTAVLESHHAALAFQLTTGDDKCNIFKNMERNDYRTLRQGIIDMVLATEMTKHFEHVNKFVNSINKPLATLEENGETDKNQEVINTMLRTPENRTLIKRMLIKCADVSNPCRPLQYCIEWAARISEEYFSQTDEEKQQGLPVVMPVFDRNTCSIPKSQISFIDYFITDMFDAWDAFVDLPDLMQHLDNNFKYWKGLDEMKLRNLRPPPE
# [12] = Half life in human liver microsomes; type: ADME, Microsome
# [13] = AUC (0 to infinity) in Sprague-Dawley rat at 5 mg/kg, po; type: ADME, organism-based; parameters: dose 5 mg/kg, time infinity, route oral; conditions: in vivo
# Cytochrome P450 1A2 = molecular target: T1, Cytochrome P450 1A2 (Homo sapiens, UniProt P05177); test: Inhibition of human CYP1A2; type: ADME
# T1 sequence (P05177 whole entry): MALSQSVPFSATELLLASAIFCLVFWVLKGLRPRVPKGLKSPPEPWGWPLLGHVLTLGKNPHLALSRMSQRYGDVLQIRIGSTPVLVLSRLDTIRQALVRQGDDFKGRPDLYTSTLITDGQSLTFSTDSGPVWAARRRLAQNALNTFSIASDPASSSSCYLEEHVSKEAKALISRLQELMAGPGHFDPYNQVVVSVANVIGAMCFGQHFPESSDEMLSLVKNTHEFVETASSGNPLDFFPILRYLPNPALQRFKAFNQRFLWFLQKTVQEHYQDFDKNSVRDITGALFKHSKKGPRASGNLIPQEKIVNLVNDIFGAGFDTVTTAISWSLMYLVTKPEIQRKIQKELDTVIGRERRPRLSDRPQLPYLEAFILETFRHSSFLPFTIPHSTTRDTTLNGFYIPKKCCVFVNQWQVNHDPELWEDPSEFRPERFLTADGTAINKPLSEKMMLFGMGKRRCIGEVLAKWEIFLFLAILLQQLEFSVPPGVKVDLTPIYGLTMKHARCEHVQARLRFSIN
# [14] = Tmax in Sprague-Dawley rat at 5 mg/kg, po; type: ADME, organism-based; conditions: in vivo
# [15] = MRT (0 to t) in Sprague-Dawley rat at 5 mg/kg, po; type: ADME, organism-based; conditions: in vivo
# [16] = Half life in Sprague-Dawley rat at 2.5 mg/kg, iv; type: ADME, organism-based; conditions: in vivo
# [17] = molecular target: High affinity 3',5'-cyclic-AMP phosphodiesterase 7A (Homo sapiens, UniProt Q13946); test: Inhibition of PDE7A1 (130 to 482 residues) (unknown origin) using [3H]-cAMP substrate incubated for 15 mins by liquid scintillation counting method relative to control
# High affinity 3',5'-cyclic-AMP phosphodiesterase 7A, sequence (Q13946 whole entry, the tested form may be a part): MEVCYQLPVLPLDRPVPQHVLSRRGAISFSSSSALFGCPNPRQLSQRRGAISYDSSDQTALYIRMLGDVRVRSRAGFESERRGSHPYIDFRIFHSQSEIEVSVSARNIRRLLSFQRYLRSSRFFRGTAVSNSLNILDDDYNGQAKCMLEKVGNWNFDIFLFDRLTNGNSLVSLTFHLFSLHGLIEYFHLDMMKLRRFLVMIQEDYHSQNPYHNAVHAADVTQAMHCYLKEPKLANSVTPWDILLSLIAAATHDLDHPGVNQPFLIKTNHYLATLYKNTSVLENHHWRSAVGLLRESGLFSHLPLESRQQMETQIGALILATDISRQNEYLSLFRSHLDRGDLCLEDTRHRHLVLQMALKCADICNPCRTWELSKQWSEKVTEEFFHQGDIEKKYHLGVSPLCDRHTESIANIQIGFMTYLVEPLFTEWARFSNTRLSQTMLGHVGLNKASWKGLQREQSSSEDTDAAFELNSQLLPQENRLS
# Rattus norvegicus [18] = test: Anti-pulmonary fibrosis activity in Sprague-Dawley rat model of BLM-induced idiopathic pulmonary fibrosis assessed as reduction in peak expiratory flow at 10 mg/kg, po dosed daily for 28 days by mka noninvasive pulmonary monitoring system based method; type: functional, organism-based
# [19] = AUC (0 to t) in Sprague-Dawley rat at 2.5 mg/kg, iv; type: ADME, organism-based; conditions: in vivo
# [20] = Acute toxicity in mouse; type: organism-based; conditions: in vivo
# [21] = Unbound fraction in human plasma; type: ADME, cell-free
# Rattus norvegicus [22] = test: Anti-pulmonary fibrosis activity in Sprague-Dawley rat model of BLM-induced idiopathic pulmonary fibrosis assessed as inhibition of alpha-SMA protein expression at 10 mg/kg, po dosed daily for 28 days by Western blot analysis; type: functional, organism-based
# [23] = molecular target: cAMP and cAMP-inhibited cGMP 3',5'-cyclic phosphodiesterase 10A (Homo sapiens, UniProt Q9Y233); test: Inhibition of PDE10A (449 to 770 residues) (unknown origin) using [3H]-cAMP substrate incubated for 15 mins by liquid scintillation counting method relative to control
# cAMP and cAMP-inhibited cGMP 3',5'-cyclic phosphodiesterase 10A, sequence (Q9Y233 whole entry, the tested form may be a part): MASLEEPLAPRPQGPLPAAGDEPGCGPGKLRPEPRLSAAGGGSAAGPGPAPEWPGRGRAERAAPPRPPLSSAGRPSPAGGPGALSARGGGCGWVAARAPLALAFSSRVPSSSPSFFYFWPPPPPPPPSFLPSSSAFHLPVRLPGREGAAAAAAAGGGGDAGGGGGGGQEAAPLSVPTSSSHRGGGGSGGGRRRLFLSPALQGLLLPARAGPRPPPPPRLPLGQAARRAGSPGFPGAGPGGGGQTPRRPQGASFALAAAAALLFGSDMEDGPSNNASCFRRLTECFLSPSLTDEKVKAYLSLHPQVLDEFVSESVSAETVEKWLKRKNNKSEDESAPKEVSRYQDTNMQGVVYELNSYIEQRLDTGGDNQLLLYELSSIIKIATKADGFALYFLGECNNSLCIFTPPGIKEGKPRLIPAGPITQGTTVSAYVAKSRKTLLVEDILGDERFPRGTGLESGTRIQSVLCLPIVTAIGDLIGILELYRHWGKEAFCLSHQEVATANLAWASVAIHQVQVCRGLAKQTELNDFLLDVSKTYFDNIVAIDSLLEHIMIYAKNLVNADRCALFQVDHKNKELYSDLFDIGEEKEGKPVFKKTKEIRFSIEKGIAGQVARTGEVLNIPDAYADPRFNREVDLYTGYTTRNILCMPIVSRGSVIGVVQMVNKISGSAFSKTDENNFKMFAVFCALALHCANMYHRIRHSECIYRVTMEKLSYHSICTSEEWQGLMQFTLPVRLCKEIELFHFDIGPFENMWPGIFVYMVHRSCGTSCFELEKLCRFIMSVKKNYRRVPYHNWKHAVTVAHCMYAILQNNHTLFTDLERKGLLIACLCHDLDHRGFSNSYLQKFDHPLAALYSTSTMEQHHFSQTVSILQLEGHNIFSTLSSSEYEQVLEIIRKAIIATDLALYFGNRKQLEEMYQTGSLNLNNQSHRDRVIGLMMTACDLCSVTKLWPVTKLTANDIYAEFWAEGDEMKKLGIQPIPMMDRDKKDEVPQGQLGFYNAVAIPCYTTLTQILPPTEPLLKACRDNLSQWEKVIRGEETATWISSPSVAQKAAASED
# [24] = Solubility in pH 7.3 solution by HPLC analysis; type: physicochemical
# Rattus norvegicus [25] = test: Anti-pulmonary fibrosis activity in Sprague-Dawley rat model of BLM-induced idiopathic pulmonary fibrosis assessed as reduction in end-expiratory pause at 10 mg/kg, po dosed daily for 28 days by mka noninvasive pulmonary monitoring system based method; type: functional, organism-based
# Homo sapiens = species on record: Homo sapiens; test: Anti-pulmonary fibrosis activity in human HLF assessed as reduction in TGF-beta-induced myofibroblast differentiation by measuring reduction in alpha-SMA protein expression incubated for 48 hrs by Western blot analysis; type: functional
# Rattus norvegicus [26] = test: Anti-pulmonary fibrosis activity in Sprague-Dawley rat model of BLM-induced idiopathic pulmonary fibrosis assessed as reduction in lung structural damage at 10 mg/kg, po dosed daily for 28 days by H and E staining based assay; type: functional, organism-based
# [27] = molecular target: Voltage-gated inwardly rectifying potassium channel KCNH2 (Homo sapiens, UniProt Q12809); test: Inhibition of human ERG
# Voltage-gated inwardly rectifying potassium channel KCNH2, sequence (Q12809 whole entry): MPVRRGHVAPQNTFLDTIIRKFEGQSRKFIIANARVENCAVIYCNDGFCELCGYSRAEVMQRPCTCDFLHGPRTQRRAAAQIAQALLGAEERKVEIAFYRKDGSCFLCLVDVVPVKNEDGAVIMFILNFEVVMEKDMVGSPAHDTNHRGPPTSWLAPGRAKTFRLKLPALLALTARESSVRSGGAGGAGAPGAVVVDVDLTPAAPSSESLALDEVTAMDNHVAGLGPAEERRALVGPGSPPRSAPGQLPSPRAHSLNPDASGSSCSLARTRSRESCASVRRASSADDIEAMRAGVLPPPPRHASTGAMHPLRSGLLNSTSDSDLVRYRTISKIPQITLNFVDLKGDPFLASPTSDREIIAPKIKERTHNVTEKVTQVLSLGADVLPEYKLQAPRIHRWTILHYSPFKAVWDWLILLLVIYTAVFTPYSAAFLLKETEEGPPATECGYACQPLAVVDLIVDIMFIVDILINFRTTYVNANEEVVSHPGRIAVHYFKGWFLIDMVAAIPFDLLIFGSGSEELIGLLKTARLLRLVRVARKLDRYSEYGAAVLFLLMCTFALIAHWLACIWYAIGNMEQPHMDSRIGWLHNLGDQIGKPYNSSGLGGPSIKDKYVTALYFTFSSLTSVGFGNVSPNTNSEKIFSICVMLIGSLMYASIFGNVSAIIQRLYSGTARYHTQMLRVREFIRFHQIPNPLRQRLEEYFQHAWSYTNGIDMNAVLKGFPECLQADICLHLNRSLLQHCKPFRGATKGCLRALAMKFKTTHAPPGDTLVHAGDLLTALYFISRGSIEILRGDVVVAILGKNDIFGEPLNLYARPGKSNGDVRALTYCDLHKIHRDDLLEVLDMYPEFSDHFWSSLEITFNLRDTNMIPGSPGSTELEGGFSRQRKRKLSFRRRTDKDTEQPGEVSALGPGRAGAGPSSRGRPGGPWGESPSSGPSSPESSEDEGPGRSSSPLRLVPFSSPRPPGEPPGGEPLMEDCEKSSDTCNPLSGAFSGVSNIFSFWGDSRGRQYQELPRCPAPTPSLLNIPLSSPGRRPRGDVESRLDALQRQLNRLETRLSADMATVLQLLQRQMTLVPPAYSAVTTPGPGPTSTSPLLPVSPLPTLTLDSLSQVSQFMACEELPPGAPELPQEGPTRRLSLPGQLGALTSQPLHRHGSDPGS
# [28] = AUC (0 to infinity) in Sprague-Dawley rat at 2.5 mg/kg, iv; type: ADME, organism-based; parameters: dose 2.5 mg/kg, time infinity, route intravenous; conditions: in vivo
# Rattus norvegicus [29] = test: Anti-pulmonary fibrosis activity in Sprague-Dawley rat model of BLM-induced idiopathic pulmonary fibrosis assessed as reduction in peak inspiratory flow at 10 mg/kg, po dosed daily for 28 days by mka noninvasive pulmonary monitoring system based method; type: functional, organism-based
compound,measurement,setting,value
C[C@@H](Nc1nc2c(cnn2C(C)(C)C)c(=O)n1Cc1ccc(F)cc1)c1ccc(Cl)cc1,AUC(0-t),[1],1300 ng·h/mL
same,Activity,Rattus norvegicus [2],Active
same,IC50,[3],0.37 µM
same,IC50,[4],> 10 µM
same,IC50,Cytochrome P450 2D6,> 25 µM
same,Activity,Rattus norvegicus [5],Active
same,IC50,[6],> 10 µM
same,IC50,Cytochrome P450 3A4,> 25 µM
same,Cmax,[7],169 ng/mL
same,MRT last,[8],5.81 h
same,IC50,[9],0.699 µM
same,IC50,Cytochrome P450 2C9,6.6 µM
same,Activity,Rattus norvegicus [10],Active
same,IC50,[11],2.02 µM
same,half-life,[12],0.262 h
same,AUC(0-inf),[13],1320 ng·h/mL
same,IC50,Cytochrome P450 1A2,> 25 µM
same,Tmax,[14],4 h
same,MRT last,[15],6.88 h
same,half-life,[16],5.5 h
same,IC50,[17],> 10 µM
same,Activity,Rattus norvegicus [18],Active
same,AUC(0-t),[19],1930 ng·h/mL
same,MTD,[20],> 1500 mg/kg
same,Fu,[21],0.1%
same,Activity,Rattus norvegicus [22],Active
same,IC50,[23],1.77 µM
same,solubility,[24],22 µg/mL
same,Activity,Rattus norvegicus [25],Active
same,Activity,Homo sapiens,Dose-dependent effect
same,Activity,Rattus norvegicus [26],Active
same,IC50,[27],11 µM
same,AUC(0-inf),[28],2100 ng·h/mL
same,Activity,Rattus norvegicus [29],Active
